Results: US20100298141A1, “SUBSTITUTED PYRIDINE N-OXIDE HERBICIDES” (E. I. DU PONT DE NEMOURS AND COMPANY, priority 2007, published 2010)

Legend:
goosegrass = assay: Test F preemergence test; type: in vivo, Eleusine indica; settings: scale 0 to 100
Outline: (§1)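 Compound in a non-phytotoxic solvent blend with surfactant is applied preemergence to planted seeds or postemergence to sugarcane plants. Plants and controls stay in the greenhouse 14 to 21 days before visual comparison.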

johnsongrass = assay: Test F preemergence test; type: in vivo, Sorghum halepense; settings: scale 0 to 100
Outline: as §1

common ragweed = assay: Test F preemergence test; type: in vivo, Ambrosia elation; settings: scale 0 to 100
Outline: as §1

naked crabgrass = assay: Test F preemergence test; type: in vivo, Digitaria nuda; settings: scale 0 to 100
Outline: as §1

broadleaf signalgrass = assay: Test F preemergence test; type: in vivo, Brachiaria platyphylla; settings: scale 0 to 100
Outline: as §1

purple nutsedge = assay: Test F preemergence test; type: in vivo, Cyperus rotundus; settings: scale 0 to 100
Outline: as §1

itchgrass = assay: Test F preemergence test; type: in vivo, Rottboellia cochinchinensis; settings: scale 0 to 100
Outline: as §1

common purslane = assay: Test F preemergence test; type: in vivo, Portulaca oleracea; settings: scale 0 to 100
Outline: as §1

prickly sida = assay: Test F preemergence test; type: in vivo, Sida spinosa; settings: scale 0 to 100
Outline: as §1

pitted morningglory = assay: Test F preemergence test; type: in vivo, Ipomoea lacunosa; settings: scale 0 to 100
Outline: as §1

southern sandbur = assay: Test F preemergence test; type: in vivo, Cenchrus echinatus; settings: scale 0 to 100
Outline: as §1

Surinam grass = assay: Test F preemergence test; type: in vivo, Brachiaria decumbens; settings: scale 0 to 100
Outline: as §1

Russian thistle = assay: Test C pre-/postemergence test; type: in vivo, Salsola kali; settings: for Plant response rating, Russian Thistle: 31 g ai/ha, scale 0 to 100 (0 no effect, 100 complete control)
Outline: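 Test chemicals were formulated with surfactant in a non-phytotoxic solvent and sprayed both on freshly planted seeds (preemergence) and on 1- to 4-leaf plants of 2–18 cm (postemergence). Flooded-paddy pots received compound directly into 3 cm of standing water, maintained for the test.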

bermudagrass = assay: Test F preemergence test; type: in vivo, Cynodon dactylon; settings: scale 0 to 100
Outline: as §1

Italian ryegrass = assay: Test F preemergence test; type: in vivo, Lolium multiflorum; settings: scale 0 to 100
Outline: as §1

guineagrass = assay: Test F preemergence test; type: in vivo, Panicum maximum; settings: scale 0 to 100
Outline: as §1

field bindweed = assay: Test F preemergence test; type: in vivo, Convolvulus arvensis; settings: scale 0 to 100
Outline: as §1

[1] = 62 g ai/ha, Preemergence, scale 0 to 100

Cc1cc[n+]([O-])c(S(=O)(=O)Cc2c(C(F)(F)F)nn(C)c2Cl)c1 [Compound 19]
30: Prickly Sida plant response rating (prickly sida; 62 g ai/ha, Preemergence) | Plant response rating, Surinam Grass (Surinam grass; Preemergence, 31 g ai/ha)
70: Plant response rating, Crabgrass, Naked (naked crabgrass; Preemergence, 16 g ai/ha) | Plant response rating, Crabgrass, Naked (naked crabgrass; Preemergence, 31 g ai/ha) | Purple Nutsedge plant response rating (purple nutsedge; 125 g ai/ha, preemergence)
10: Plant response rating, Ryegrass, Italian (Italian ryegrass; Preemergence, 31 g ai/ha)
25: Plant response rating, Ragweed (common ragweed; Preemergence, 31 g ai/ha) | Itchgrass plant response rating (itchgrass; 62 g ai/ha, Preemergence)
90: Goosegrass plant response rating (goosegrass; 62 g ai/ha, Preemergence) | Johnsongrass plant response rating (johnsongrass; 62 g ai/ha, Preemergence) | Sandbur plant response rating (southern sandbur; 62 g ai/ha, Preemergence) | Surinam Grass plant response rating (Surinam grass; 125 g ai/ha, preemergence)
100: Goosegrass plant response rating (goosegrass; 125 g ai/ha, preemergence) | Crabgrass, Naked plant response rating (naked crabgrass; 62 g ai/ha, Preemergence) | Crabgrass, Naked plant response rating (naked crabgrass; 125 g ai/ha, preemergence) | Sandbur plant response rating (southern sandbur; 125 g ai/ha, preemergence) | Russian Thistle plant response rating (Russian thistle; [1]) | Plant response rating, Russian Thistle (Russian thistle; Preemergence) | Guineagrass plant response rating (guineagrass; 62 g ai/ha, Preemergence) | Guineagrass plant response rating (guineagrass; 125 g ai/ha, preemergence)
0: Plant response rating, Goosegrass (goosegrass; Preemergence, 16 g ai/ha) | Plant response rating, Ragweed (common ragweed; Preemergence, 16 g ai/ha) | Plant response rating, Purple Nutsedge (purple nutsedge; Preemergence, 16 g ai/ha) | Plant response rating, Purple Nutsedge (purple nutsedge; Preemergence, 31 g ai/ha) | Plant response rating, Itchgrass (itchgrass; Preemergence, 16 g ai/ha) | Plant response rating, Itchgrass (itchgrass; Preemergence, 31 g ai/ha) | Purslane plant response rating (common purslane; 62 g ai/ha, Preemergence) | Purslane plant response rating (common purslane; 125 g ai/ha, preemergence) | Plant response rating, Purslane (common purslane; Preemergence, 16 g ai/ha) | Plant response rating, Purslane (common purslane; Preemergence, 31 g ai/ha) | Plant response rating, Prickly Sida (prickly sida; Preemergence, 16 g ai/ha) | Morningglory plant response rating (pitted morningglory; 62 g ai/ha, Preemergence) | Morningglory plant response rating (pitted morningglory; 125 g ai/ha, preemergence) | Plant response rating, Morningglory (pitted morningglory; Preemergence, 16 g ai/ha) | Plant response rating, Morningglory (pitted morningglory; Preemergence, 31 g ai/ha) | Plant response rating, Bermudagrass (bermudagrass; Preemergence, 16 g ai/ha) | Plant response rating, Ryegrass, Italian (Italian ryegrass; Preemergence, 16 g ai/ha) | Field Bindweed plant response rating (field bindweed; 62 g ai/ha, Preemergence) | Plant response rating, Field Bindweed (field bindweed; Preemergence, 16 g ai/ha) | Plant response rating, Field Bindweed (field bindweed; Preemergence, 31 g ai/ha)
75: Plant response rating, Goosegrass (goosegrass; Preemergence, 31 g ai/ha) | Plant response rating, Johnsongrass (johnsongrass; Preemergence, 31 g ai/ha) | Surinam Grass plant response rating (Surinam grass; 62 g ai/ha, Preemergence)
60: Plant response rating, Signalgrass (broadleaf signalgrass; Preemergence, 31 g ai/ha) | Purple Nutsedge plant response rating (purple nutsedge; 62 g ai/ha, Preemergence) | Prickly Sida plant response rating (prickly sida; 125 g ai/ha, preemergence) | Plant response rating, Sandbur (southern sandbur; Preemergence, 31 g ai/ha) | Bermudagrass plant response rating (bermudagrass; 62 g ai/ha, Preemergence)
15: Field Bindweed plant response rating (field bindweed; 125 g ai/ha, preemergence)
95: Signalgrass plant response rating (broadleaf signalgrass; 125 g ai/ha, preemergence) | Bermudagrass plant response rating (bermudagrass; 125 g ai/ha, preemergence)
98: Johnsongrass plant response rating (johnsongrass; 125 g ai/ha, preemergence)
50: Ragweed plant response rating (common ragweed; 62 g ai/ha, Preemergence) | Itchgrass plant response rating (itchgrass; 125 g ai/ha, preemergence) | Ryegrass, Italian plant response rating (Italian ryegrass; 62 g ai/ha, Preemergence) | Plant response rating, Guineagrass (guineagrass; Preemergence, 16 g ai/ha)
20: Plant response rating, Prickly Sida (prickly sida; Preemergence, 31 g ai/ha)
40: Plant response rating, Johnsongrass (johnsongrass; Preemergence, 16 g ai/ha) | Plant response rating, Bermudagrass (bermudagrass; Preemergence, 31 g ai/ha)
65: Signalgrass plant response rating (broadleaf signalgrass; 62 g ai/ha, Preemergence) | Ryegrass, Italian plant response rating (Italian ryegrass; 125 g ai/ha, preemergence)
80: Ragweed plant response rating (common ragweed; 125 g ai/ha, preemergence) | Plant response rating, Guineagrass (guineagrass; Preemergence, 31 g ai/ha)

CC(Oc1c(C[S+]([O-])c2cccc[n+]2[O-])c(C(F)(F)F)nn1C)C(F)(F)F (stereo not drawn) [Compound 77]
35: Plant response rating, Itchgrass (itchgrass; Preemergence, 31 g ai/ha) | Plant response rating, Morningglory (pitted morningglory; Preemergence, 31 g ai/ha) | Field Bindweed plant response rating (field bindweed; 62 g ai/ha, Preemergence)
25: Plant response rating, Signalgrass (broadleaf signalgrass; Preemergence, 31 g ai/ha)
100: Goosegrass plant response rating (goosegrass; 62 g ai/ha, Preemergence) | Goosegrass plant response rating (goosegrass; 125 g ai/ha, preemergence) | Johnsongrass plant response rating (johnsongrass; 125 g ai/ha, preemergence) | Crabgrass, Naked plant response rating (naked crabgrass; 125 g ai/ha, preemergence) | Sandbur plant response rating (southern sandbur; 125 g ai/ha, preemergence) | Russian Thistle plant response rating (Russian thistle; [1]) | Russian Thistle plant response rating (Russian thistle; 125 g ai/ha, preemergence, scale 0 (no effect) to 100 (complete control)) | Plant response rating, Russian Thistle (Russian thistle; Preemergence) | Russian Thistle plant response rating (Russian thistle; preemergence, 250 g ai/ha, scale 0 (no effect) to 100 (complete control)) | Ryegrass, Italian plant response rating (Italian ryegrass; 125 g ai/ha, preemergence) | Guineagrass plant response rating (guineagrass; 62 g ai/ha, Preemergence) | Guineagrass plant response rating (guineagrass; 125 g ai/ha, preemergence)
75: Plant response rating, Johnsongrass (johnsongrass; Preemergence, 31 g ai/ha) | Plant response rating, Crabgrass, Naked (naked crabgrass; Preemergence, 31 g ai/ha) | Plant response rating, Signalgrass (broadleaf signalgrass; Preemergence, 62 g ai/ha) | Purple Nutsedge plant response rating (purple nutsedge; 125 g ai/ha, preemergence)
20: Plant response rating, Goosegrass (goosegrass; 16 g ai/ha, preemergence) | Purslane plant response rating (common purslane; 62 g ai/ha, Preemergence) | Plant response rating, Prickly Sida (prickly sida; 16 g ai/ha, preemergence)
70: Plant response rating, Surinam Grass (Surinam grass; Preemergence, 31 g ai/ha) | Field Bindweed plant response rating (field bindweed; 125 g ai/ha, preemergence)
85: Plant response rating, Goosegrass (goosegrass; Preemergence, 31 g ai/ha) | Johnsongrass plant response rating (johnsongrass; 62 g ai/ha, Preemergence)
95: Itchgrass plant response rating (itchgrass; 125 g ai/ha, preemergence) | Plant response rating, Sandbur (southern sandbur; Preemergence, 62 g ai/ha) | Plant response rating, Surinam Grass (Surinam grass; Preemergence, 62 g ai/ha) | Bermudagrass plant response rating (bermudagrass; 125 g ai/ha, preemergence)
40: Plant response rating, Ryegrass, Italian (Italian ryegrass; Preemergence, 31 g ai/ha)
60: Plant response rating, Purple Nutsedge (purple nutsedge; Preemergence, 31 g ai/ha) | Morningglory plant response rating (pitted morningglory; 62 g ai/ha, Preemergence)
90: Crabgrass, Naked plant response rating (naked crabgrass; 62 g ai/ha, Preemergence) | Signalgrass plant response rating (broadleaf signalgrass; 125 g ai/ha, preemergence) | Morningglory plant response rating (pitted morningglory; 125 g ai/ha, preemergence) | Plant response rating, Sandbur (southern sandbur; Preemergence, 31 g ai/ha) | Plant response rating, Ryegrass, Italian (Italian ryegrass; Preemergence, 62 g ai/ha)
15: Plant response rating, Guineagrass (guineagrass; 16 g ai/ha, preemergence)
65: Plant response rating, Ragweed (common ragweed; Preemergence, 62 g ai/ha) | Itchgrass plant response rating (itchgrass; 62 g ai/ha, Preemergence) | Purslane plant response rating (common purslane; 125 g ai/ha, preemergence)
30: Plant response rating, Prickly Sida (prickly sida; Preemergence, 31 g ai/ha) | Plant response rating, Bermudagrass (bermudagrass; Preemergence, 31 g ai/ha)
98: Ragweed plant response rating (common ragweed; 125 g ai/ha, preemergence) | Surinam Grass plant response rating (Surinam grass; 125 g ai/ha, preemergence)
0: Plant response rating, Johnsongrass (johnsongrass; 16 g ai/ha, preemergence) | Plant response rating, Ragweed (common ragweed; 16 g ai/ha, preemergence) | Plant response rating, Crabgrass, Naked (naked crabgrass; 16 g ai/ha, preemergence) | Plant response rating, Signalgrass (broadleaf signalgrass; 16 g ai/ha, preemergence) | Plant response rating, Purple Nutsedge (purple nutsedge; 16 g ai/ha, preemergence) | Plant response rating, Itchgrass (itchgrass; 16 g ai/ha, preemergence) | Plant response rating, Purslane (common purslane; 16 g ai/ha, preemergence) | Plant response rating, Purslane (common purslane; Preemergence, 31 g ai/ha) | Plant response rating, Morningglory (pitted morningglory; 16 g ai/ha, preemergence) | Plant response rating, Sandbur (southern sandbur; 16 g ai/ha, preemergence) | Plant response rating, Surinam Grass (Surinam grass; 16 g ai/ha, preemergence) | Plant response rating, Bermudagrass (bermudagrass; 16 g ai/ha, preemergence) | Plant response rating, Ryegrass, Italian (Italian ryegrass; 16 g ai/ha, preemergence) | Plant response rating, Field Bindweed (field bindweed; 16 g ai/ha, preemergence) | Plant response rating, Field Bindweed (field bindweed; Preemergence, 31 g ai/ha)
80: Prickly Sida plant response rating (prickly sida; 62 g ai/ha, Preemergence) | Prickly Sida plant response rating (prickly sida; 125 g ai/ha, preemergence) | Bermudagrass plant response rating (bermudagrass; 62 g ai/ha, Preemergence) | Plant response rating, Guineagrass (guineagrass; Preemergence, 31 g ai/ha)
